Results on 15 compounds are retold here after patent publication US6214537A, “Synthetic peptides and mixtures thereof for detecting HIV antibodies” (Biochem Immunosystems, Inc., priority 1988, dated 2001).

Positions of bridges follow the written chain, without caps; N, C: chain ends. Residues, ends and D or L forms follow the SMILES beside them. No end group written: not given here.

This assay deals with HIV-1 antibodies. The assay can be described thus: ELISA, single peptides identifying HIV-1 positive sera. In kind it is binding, human. Here is the method: According to this test a peptide or a peptide mixture of the present invention is adsorbed onto the wells of a microtiter plate. The wells are then treated with sera to be tested. After washing, anti-human IgG labeled with peroxidase is added to the wells. The determination of the peroxidase is performed with a corresponding substrate, e.g. with o-phenylene diamine. Also in this procedure the peroxidase can be exchanged by another label, e.g. by a radioactive or fluorescence label.
Each well of the microtiter plate is saturated with 100 μl of a solution containing a peptide or mixture of peptides (5 μg/ml) and left overnight. The wells are emptied and washed twice with a washing buffer (Tris, 0.043M; NaCl, 0.5M;thimerosal, 0.01% w/v; Tween 20, 0.05% v/v; pH 7.4). The wells are then saturated with 0.35 ml of washing buffer for 1 hr. at 37° C. and washed once with the same buffer. Serum samples to be analyzed are diluted with specimen buffer (washing buffer plus casein, 0.05% w/v). The wells are rinsed with washing buffer prior to the addition of the diluted serum sample (0.1 ml). These are left to incubate for 1 hr. at room temperature. The wells are then emptied, washed twice rapidly and then once for two minutes with washing buffer. […] The wells are then emptied and washed twice rapidly with washing buffer and then five times in which the buffer was in contact with the well 2 minutes per washing.
The substrate solution (3,3', 5,5'-tetramethylbenzidine, 8 mg per ml of DMSO) is diluted with 100 volumes 0.1M citrate-acetate buffer, pH 5.6 containing 0.1% v/v of 30% H2 O2 and added to each well (0.1 ml per well). After 10 minutes the contents of each well is treated with 0.1 ml 2N H2 SO4 and the optical density read at 450 nm. All determinations are done in duplicate.

For `CC[C@H](C)[C@H](NC(=O)CNC(=O)[C@H](CC(C)C)NC(=O)[C@H](CC(C)C)NC(=O)[C@H](CCC(N)=O)NC(=O)[C@H](CCC(N)=O)NC(=O)[C@H](CC(=O)O)NC(=O)[C@H](CCCCN)NC(=O)[C@H](CC(C)C)NC(=O)[C@H](Cc1ccc(O)cc1)NC(=O)[C@H](CCCNC(=N)N)NC(=O)[C@H](CCC(=O)O)NC(=O)[C@@H](N)C(C)C)C(=O)N[C@@H](Cc1c[nH]c2ccccc12)C(=O)NCC(=O)N[C@H]1CSSC[C@@H](C(=O)N[C@H](C(=O)N[C@H](C(=O)N[C@@H](C)C(=O)N[C@H](C(=O)N2CCC[C@H]2C(=O)N[C@@H](Cc2c[nH]c3ccccc23)C(=O)N[C@@H](CC(N)=O)C(=O)N[C@@H](C)C(=O)N[C@@H](CO)C(=O)O)C(C)C)[C@@H](C)O)[C@@H](C)O)NC(=O)[C@H]([C@@H](C)CC)NC(=O)[C@H](CC(C)C)NC(=O)[C@H](CCCCN)NC(=O)CNC(=O)[C@H](CO)NC1=O` [Peptide 88] (H-VERYLKDQQLLGIWGCSGKLICTTAVPWNAS-OH; disulfide 16-22), where the note is “ELISA, single peptide”, the “% Positive Sera correctly Identified” value is 100%. Regarding `CC[C@H](C)[C@H](NC(=O)[C@H](CCC(N)=O)NC(=O)[C@H](CCC(=O)O)NC(=O)[C@H](CC(C)C)NC(=O)[C@H](CO)NC(=O)[C@H](CCCCN)NC(=O)[C@H](CC(N)=O)NC(=O)[C@H](CO)NC(=O)[C@H](Cc1c[nH]c2ccccc12)NC(=O)[C@H](CO)NC(=O)[C@H](C)NC(=O)[C@H](CC(N)=O)NC(=O)[C@H](Cc1c[nH]c2ccccc12)NC(=O)[C@@H]1CCCN1C(=O)[C@@H](NC(=O)[C@H](C)NC(=O)[C@@H](NC(=O)[C@@H](NC(=O)[C@@H]1CSSC[C@H](NC(=O)CN)C(=O)N[C@@H](CO)C(=O)NCC(=O)N[C@@H](CCCCN)C(=O)N[C@@H](CC(C)C)C(=O)N[C@@H]([C@@H](C)CC)C(=O)N1)[C@@H](C)O)[C@@H](C)O)C(C)C)C(=O)O` [Peptide 96] (H-GCSGKLICTTAVPWNASWSNKSLEQI-OH; disulfide 2-8), for the setting “ELISA, single peptide”, the “% Positive Sera correctly Identified” value amounted to 100%. As for CGKIEPLGVAPTKAKRRVVQREKR [Peptide 71], where the note is “ELISA, single peptide”, the “% Positive Sera correctly Identified” value turned out to be 83%. On to “CGNNPPIPVGE [Peptide 41, NH2 -CGNNPPIPVGE-COOH]”, for which the “% Positive Sera correctly Identified” value is, setting by setting: (peptide Free) 63%; (peptide coupled) 73%. With “CGRAEQASQEVKN [Peptide 46, NH2 -CGRAEQASQEVKN-COOH]”, the “% Positive Sera correctly Identified” value by setting is: (peptide Free) 0%; (peptide coupled) 93%.

On to GHACVPTDPNPQEVVL [Peptide 14], for which, where the note is “ELISA, single peptide”, the “% Positive Sera correctly Identified” value came to 50%. On to “NH2 -CGLGIWGCSGKLICTTAVPWNASWSNKSLEQI-COOH [Peptide 98]”, for which the “% Positive Sera correctly Identified” value (ELISA, single peptide) is listed as 100%.

As for “NH2 -CGVERYLKQQLLGIWGCSGKLICTTAVPWNASWSNKSLEQI-COOH [Peptide 99]”, the “% Positive Sera correctly Identified” value (ELISA, single peptide) amounted to 100%. On the same count and under the same terms, to “NH2 -CGYLKDQQLLGIWGCSGKLICTTAVPWNASWSNKSLEQI-COOH [Peptide 97]” belongs 100%. For “NH2 -FAFAFGCSGKLICTTAVPWNASWSNKSLEQI-COOH [Peptide 91]”, the “% Positive Sera correctly Identified” value (ELISA, single peptide) was found to be 94%. Regarding “NH2 -GCSGKLICTTAVPWNASWSWSNKSLEQI-COOH [Peptide 95]”, the “% Positive Sera correctly Identified” value (ELISA, single peptide) was 100%. “NH2 -IWGCSGKLICTTAVPWNAS-COOH (H-IWGCSGKLICTTAVPWNAS-OH; cysteine pairing not given here) [Peptide 78, linear peptide, gp41 602-620]”: where the note is “ELISA, single peptide”, the “% Positive Sera correctly Identified” value turned out to be 100%. For “NH2 -SGKLICTTAVPWNASWSNKSLEQGC-COOH [Peptide 56]”, for the setting “ELISA, single peptide”, the “% Positive Sera correctly Identified” value was 100%.

With “NH2 -VERYLKDQQLLGIWGCSGKLICTTAVPWNAS-COOH (H-VERYLKDQQLLGIWGCSGKLICTTAVPWNAS-OH; cysteine pairing not given here) [Peptide 81, linear peptide, gp41 590-620]”, the “% Positive Sera correctly Identified” value (ELISA, single peptide) was 100%. On to TTAVPWNASWSNKSLEQGC [Peptide 42], for which the “% Positive Sera correctly Identified” value (ELISA, single peptide) was 5%.
